The record followed here is patent US9429582B2, “Tyrosine-phosphorylated WBP2, a novel cancer target and biomarker” (National University of Singapore, priority 2010, dated 2016).

Holding throughout (type): cell-based, human
The test system of series [1] is YAP, ERα, cyclin D1, Wnt3a, pGSKβ, β-catenin, c-Myc, Bcl-2, c-Yes, p16, p21, MMP2. As to the kind of experiment: Immunoblot of Y192-231E mutant expressing MCF7 with WBP2 knockdown. The settings on record: WBP2 expression silenced in WBP2 Y192-231E stable transfectant. As for the experimental part:
A: Whole cell lysates from vector, WBP2-WT, WBP2-Y192-231E mutant and WBP2-Y192-231F mutant expressing MCF7 or Y192-231E mutant expressing MCF7 with WBP2 knockdown were used for IB analysis with antibodies indicated. B: Vector, WBP2-WT, WBP2-Y192-231E mutant or WBP2-Y192-231F mutant-expressing MCF7 were co-transfected with TOPFlash (top panel) or ERE-Luciferase (bottom panel) reporter construct. For cells co-transfected ERE-luciferase, they were either left alone or stimulated with 50 ng/ml Wnt3a ligand for 16 hrs. TCF/ERα luciferase activities in various conditions were then assayed. **P<0.01, ***P<0.001, Student's t-test (2-tailed). […] Cell numbers were measured. […]
Whole cell lysates from vector, WBP2-WT, WBP2-Y192-231E mutant and WBP2-Y192-231F mutant expressing MCF7 (A) or Y192-231E mutant expressing MCF7 with WBP2 knockdown (B) were used for IB analysis with antibodies indicated. Their expression levels were quantified in three independent experiments and the averages were presented relative to actin. […] TCF(C)/ER[…](D) luciferase activities in various conditions were then assayed and analyzed in relative to untreated vector control. **P<0.01, ***P<0.001, Student's t-test (2-tailed). […] Cell numbers were measured daily and compared in relative to vehicle treated vector-expressing cells on Day 0. […] Cell numbers were measured and compared in relative to vehicle-treated cells. […]

In series [2] the test system is EGFR. The series can be described thus: EGFR activation (auto-phosphorylation) in EGF-stimulated HeLa (IB). To be noted: 50 ng/ml EGF 5 min, c-Src inhibition, 1 μM AZD0530. As for the experimental part:
A: HeLa were co-transfected with EGFR and V5-tagged WT or individual Y→F mutant of WBP2. 24 hr post-transfection, cells were serum-starved and stimulated with 50 ng/ml EGF for 5 min with/without 1 hr pre-treatment with 10 μM Iressa or 1 μM AZD0530. Whole cell lysates were used for IP/IB analysis with antibodies indicated. B: HeLa were co-transfected with EGFR and V5-tagged WT or individual Y→F mutant of WBP2 in the absence or presence of Src-DN overexpression. C: HeLa were co-transfected with (a) WBP2; (b) WBP2 and EGFR; (c) WBP2 and wild-type (WT) Src; (d) WBP2 and constitutively active (CA) Src; (e) WBP2, EGFR and WT-Src; (f) WBP2, EGFR ad CA-Src; (g) Y192-231F, EGFR and WT-Src. For experiments B and C, 24 hr post-transfection, cells were serum-starved overnight and stimulated with 50 ng/ml EGF for 5 min. Whole cell lysates were used for IP/IB analysis with antibodies indicated. D: HeLa were co-transfected with EGFR and V5-tagged WT or individual Y→F mutant of WBP2. 24 hrpost-transfection, cells were serum-starved and stimulated with 50 ng/ml EGF for 5 min with/without 1 hr pre-treatment with 10 μM Iressa or 1 μM AZD0530. Whole cell lysates were used for IP/IB analysis with antibodies indicated. E: HeLa were co-transfected with EGFR and V5-tagged WT or individual Y→F mutant of WBP2 in the absence or presence of Src-DN-K295M overexpression. […]

Series [3] deals with WBP2. As to the kind of experiment: EGF-induced WBP2 tyrosine phosphorylation in HeLa (IP/IB). The settings on record: HeLa co-transfected with EGFR and WBP2; 50 ng/ml EGF 5 min; 1 hr pre-treatment with 1 μM AZD0530. The protocol: A: HeLa were co-transfected with EGFR and V5-tagged WT or individual Y→F mutant of WBP2. 24 hr post-transfection, cells were serum-starved and stimulated with 50 ng/ml EGF for 5 min with/without 1 hr pre-treatment with 10 μM Iressa or 1 μM AZD0530. Whole cell lysates were used for IP/IB analysis with antibodies indicated. B: HeLa were co-transfected with EGFR and V5-tagged WT or individual Y→F mutant of WBP2 in the absence or presence of Src-DN overexpression. C: HeLa were co-transfected with (a) WBP2; (b) WBP2 and EGFR; (c) WBP2 and wild-type (WT) Src; (d) WBP2 and constitutively active (CA) Src; (e) WBP2, EGFR and WT-Src; (f) WBP2, EGFR ad CA-Src; (g) Y192-231F, EGFR and WT-Src. For experiments B and C, 24 hr post-transfection, cells were serum-starved overnight and stimulated with 50 ng/ml EGF for 5 min. Whole cell lysates were used for IP/IB analysis with antibodies indicated. D: HeLa were co-transfected with EGFR and V5-tagged WT or individual Y→F mutant of WBP2. 24 hrpost-transfection, cells were serum-starved and stimulated with 50 ng/ml EGF for 5 min with/without 1 hr pre-treatment with 10 μM Iressa or 1 μM AZD0530. Whole cell lysates were used for IP/IB analysis with antibodies indicated. E: HeLa were co-transfected with EGFR and V5-tagged WT or individual Y→F mutant of WBP2 in the absence or presence of Src-DN-K295M overexpression. F: HeLa were cotransfected with (a) WBP2; (b) WBP2 and EGFR; (c) WBP2 and wild-type (WT) Src; (d) WBP2 and constitutively-active (CA) Src-Y529F; (e) WBP2, EGFR and WT-Src; (f) WBP2, EGFR ad CA-Src; (g) Y192-231F, EGFR and WT-Src. For experiments B and C, 24 hr post-transfection, cells were serum-starved overnight and stimulated with 50 ng/ml EGF for 5 min. Whole cell lysates were used for IP/IB analysis with antibodies indicated. G: MCF7 were co-transfected with V5-tagged WBP2 and either negative control siRNA, c-Yes siRNA or c-Src siRNA. For both experiments, 24 hr post-transfection, cells were serum-starved overnight and stimulated with 50 ng/ml EGF for 5 min. Whole cell lysates were used for IP/IB analysis with antibodies indicated. […]

For “5′-AGCAUCCGCUGUCCGAACUCAAUGG-3′ ((5'-AGCAUCCGCUGUCCGAACUCAAUGG-3'; as printed in the source, key not given here) [WBP2 siRNA, small interfering RNA designed to suppress the expression of WBP2]”, in series [1], the “expression of c-Yes, p16, p21 and active MMP2” value is given as “remained unchanged”; the “expressions of YAP, ERα, cyclin D1, Wnt3a, pGSKβ, β-catenin, c-Myc” value is given as “suppressed”.

In the case of `CN1CCN(CCOc2cc(OC3CCOCC3)c3c(Nc4c(Cl)ccc5c4OCO5)ncnc3c2)CC1` [AZD0530], the “EGFR activation (EGFR auto-phosphorylation)” value in series [2] is “significant reduction”. For the same compound, the “EGF-induced tyrosine phosphorylation of WBP2” value in series [3] is listed as “abolished”.
